The source of these data is patent publication US20240116985A1, “STAPLED PEPTIDES AND METHODS THEREOF” (priority 2020, published 2024).

SMILES strings stand for the structures. Read-outs that look alike come from different tables or passages of the source.

For series [1], the target named is T1, full-length beta-Catenin (Uniprot ID P35222) (Homo sapiens, UniProt P35222).
T1 construct: 10 nM full-length beta-Catenin (Uniprot ID P35222)
T1 sequence (P35222 1-781): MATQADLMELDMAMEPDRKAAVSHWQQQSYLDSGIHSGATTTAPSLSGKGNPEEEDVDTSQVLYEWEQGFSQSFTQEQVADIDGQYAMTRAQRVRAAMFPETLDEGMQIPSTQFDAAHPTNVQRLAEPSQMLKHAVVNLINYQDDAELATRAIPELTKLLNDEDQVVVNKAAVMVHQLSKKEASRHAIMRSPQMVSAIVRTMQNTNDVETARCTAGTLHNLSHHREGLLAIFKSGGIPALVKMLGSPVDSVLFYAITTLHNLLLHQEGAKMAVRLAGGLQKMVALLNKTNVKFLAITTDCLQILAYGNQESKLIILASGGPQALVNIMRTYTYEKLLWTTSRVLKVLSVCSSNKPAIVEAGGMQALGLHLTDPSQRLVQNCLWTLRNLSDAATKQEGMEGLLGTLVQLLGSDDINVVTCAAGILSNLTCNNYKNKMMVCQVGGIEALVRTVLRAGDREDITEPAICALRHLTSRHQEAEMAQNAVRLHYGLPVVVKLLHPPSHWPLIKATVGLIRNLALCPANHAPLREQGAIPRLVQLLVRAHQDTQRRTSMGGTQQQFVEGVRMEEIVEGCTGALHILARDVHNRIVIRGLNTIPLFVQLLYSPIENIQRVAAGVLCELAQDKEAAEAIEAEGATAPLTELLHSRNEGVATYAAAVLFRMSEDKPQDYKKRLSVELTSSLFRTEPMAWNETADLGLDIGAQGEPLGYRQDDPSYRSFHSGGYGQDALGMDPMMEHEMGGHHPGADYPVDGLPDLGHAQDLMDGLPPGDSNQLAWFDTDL
Description: Fluorescence polarization IC50 (beta-catenin / 5FAM-TCF4 10-53 competition). It is filed as binding.

The target in series [2] is T2, full-length B-Catenin (Uniprot ID P35222) (Homo sapiens, UniProt P35222).
T2 construct: 65 nM full-length B-Catenin (Uniprot ID P35222)
T2 sequence (P35222 1-781): T1 sequence (P35222 1-781)
Description: Alphascreen binding assay (beta-catenin / biotin-TCF4 10-53). Summed up: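 AlphaScreen (Ni-chelate beads) competition in 50 mM Tris pH 8.0, 250 mM NaCl with detergents and 0.1% BSA. Peptide titrated 10 uM–5 nM against 65 nM human β-catenin bound to 10 nM biotinylated TCF4 10-53, 15 min then 60 min with beads, both at 20 °C; 1:1 Hill-slope fit.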

The nature of series [3]: CHI Log D procedure. As to conditions: for CHI Log D: pH 7.4. It is filed as physicochemical.
Where [4] appears, read: fluorescence polarization, beta-catenin, read-out: FP EC50.
Where [5] appears, read: Table E2-1, read-out: beta-Catenin FP IC50.

Take `CC[C@H](C)[C@@H]1NC(=O)[C@H](CC(=O)O)NC(=O)[C@]2(CC=CCCCC3(CCCC=CCOC(=O)N(C)CCC[C@@](C)(C(=O)N[C@@H](Cc4ccccc4)C(=O)N[C@@H](Cc4c[nH]c5ccccc45)C(=O)N[C@@H](Cc4c[nH]cn4)C(N)=O)NC(=O)[C@H](CCC(N)=O)NC(=O)[C@H](Cc4ccccc4)NC(=O)[C@H](C)NC(=O)[C@H](C)NC(=O)[C@H](CC(=O)O)NC(=O)[C@H](CC(=O)O)NC3=O)NC1=O)CCCN2C(C)=O` (stereo partly drawn) [I-189, Ac-PL3-Asp-Ile-B5-Asp-Asp-Ala-Ala-Phe-Gln-SeN-Phe-Trp-His-NH2]: the IC50 in series [1] (setting [4]) was 1600 nM. In series [2], this molecule displayed an EC50 of 156 nM. Moreover, the “CHI Log D” value in series [3] came out at 1.611.
As for `CC[C@H](C)[C@@H]1NC(=O)[C@H](CC(=O)O)NC(=O)[C@]2(CC=CCCCC3(CCCC=CCOC(=O)N(C)CCC[C@@](C)(C(=O)N[C@@H](Cc4ccccc4)C(=O)N[C@@H](Cc4c[nH]c5ccccc45)C(=O)N[C@@H](Cc4c[nH]cn4)C(N)=O)NC(=O)[C@H](CCC(N)=O)NC(=O)[C@H](Cc4ccccc4)NC(=O)[C@H](C)NC(=O)[C@H](C)NC(=O)[C@H](CC(=O)O)NC(=O)[C@H](CC(=O)O)NC3=O)NC1=O)CCCN2C(C)=O` (stereo partly drawn) [I-190, Ac-PL3-Asp-Ile-B5-Asp-Asp-Ala-Ala-Phe-Gln-SeN-Phe-Trp-His-NH2], the IC50 in series [1] (setting [5]) and in series [1] (setting [4]) was 696 nM in each case. In series [2], this molecule registered an EC50 of 94 nM. For the same molecule, the “CHI Log D” value in series [3] stood at 1.736.
As to `CC[C@H](C)[C@@H]1NC(=O)[C@H](CC(=O)O)NC(=O)[C@]2(CC=CCCCC3(CCCC=CCCCCCC[C@@](C)(C(=O)N[C@@H](Cc4ccccc4)C(=O)N[C@@H](Cc4c[nH]c5ccccc45)C(N)=O)NC(=O)[C@H](CCC(N)=O)NC(=O)[C@H](Cc4ccccc4)NC(=O)[C@H](C)NC(=O)[C@H](C)NC(=O)[C@H](CCC(=O)O)NC(=O)[C@H](CC(=O)O)NC3=O)NC1=O)CCCN2C(C)=O` (stereo partly drawn) [I-191, Ac-PL3-Asp-Ile-B5-Asp-Glu-Ala-Ala-Phe-Gln-S8-Phe-Trp-NH2], the IC50 in series [1] (setting [5]) and in series [1] (setting [4]) was 1660 nM each time. In series [2], this molecule registered an EC50 of 240 nM. In series [3], the “CHI Log D” value amounted to 2.412.
With `CC[C@H](C)[C@@H]1NC(=O)[C@H](CC(=O)O)NC(=O)[C@]2(CC=CCCCC3(CCCC=CCCCCCC[C@@](C)(C(=O)N[C@@H](Cc4ccccc4)C(=O)N[C@@H](Cc4c[nH]c5ccccc45)C(N)=O)NC(=O)[C@H](CCC(N)=O)NC(=O)[C@H](Cc4ccccc4)NC(=O)[C@H](C)NC(=O)[C@H](C)NC(=O)[C@H](CCC(=O)O)NC(=O)[C@H](CC(=O)O)NC3=O)NC1=O)CCCN2C(C)=O` (stereo partly drawn) [I-192, Ac-PL3-Asp-Ile-B5-Asp-Glu-Ala-Ala-Phe-Gln-S8-Phe-Trp-NH2], the IC50 in series [1] (setting [4]) was determined as 1660 nM. In series [2], this molecule yielded an EC50 of 240 nM. Moreover, the “CHI Log D” value in series [3] came to 2.412.
Regarding `CC[C@H](C)[C@@H]1NC(=O)[C@H](CC(=O)O)NC(=O)[C@]2(CC=CCCCC3(CCCC=CCCCCCC[C@@](C)(C(=O)N[C@@H](Cc4ccccc4)C(=O)N[C@@H](Cc4c[nH]c5ccccc45)C(N)=O)NC(=O)[C@H](CCC(N)=O)NC(=O)[C@H](Cc4ccccc4)NC(=O)[C@H](C)NC(=O)[C@H](C)NC(=O)[C@H](CCC(=O)O)NC(=O)[C@H](CC(=O)O)NC3=O)NC1=O)CCCN2C(C)=O` (stereo partly drawn) [I-193, Ac-PL3-Asp-Ile-B5-Asp-Glu-Ala-Ala-Phe-Gln-S8-Phe-Trp-NH2], the IC50 in series [1] (setting [5]) and in series [1] (setting [4]) was 533 nM throughout. The same molecule returned an EC50 in series [2] of 76 nM. Besides, the “CHI Log D” value in series [3] worked out at 2.462.
With `CC[C@H](C)[C@@H]1NC(=O)[C@H](CC(=O)O)NC(=O)[C@]2(CC=CCCCC3(CCCC=CCCCCCC[C@@](C)(C(=O)N[C@@H](Cc4ccccc4)C(=O)N[C@@H](Cc4c[nH]c5ccccc45)C(=O)N[C@@H](C)C(N)=O)NC(=O)[C@H](CCC(N)=O)NC(=O)[C@H](Cc4ccccc4)NC(=O)[C@H](C)NC(=O)[C@H](C)NC(=O)[C@H](CCC(=O)O)NC(=O)[C@H](CC(=O)O)NC3=O)NC1=O)CCCN2C(C)=O` (stereo partly drawn) [I-194, Ac-PL3-Asp-Ile-B5-Asp-Glu-Ala-Ala-Phe-Gln-S8-Phe-Trp-Ala-NH2], the IC50 in series [1] (setting [5]) was found to be 1010 nM. In series [2], the EC50 amounted to 105 nM. In series [3] (pH 7.4, CHI Log D), this molecule returned a chromatographic logD of 2.33.
For `CC(=O)N1CCC[C@]12CC=CCCCC1(CCCC=CCCCCCC[C@@](C)(C(=O)N[C@@H](Cc3ccccc3)C(=O)N[C@@H](Cc3c[nH]c4ccccc34)C(=O)N[C@@H](CCC(N)=O)C(N)=O)NC(=O)[C@H](C(C)C)NC(=O)[C@H](Cc3cccc(C)c3)NC(=O)[C@H](C)NC(=O)[C@H](C)NC(=O)[C@H](CCC(=O)O)NC(=O)[C@H](CC(=O)O)NC1=O)NC(=O)[C@H](C)NC(=O)[C@H](CC(=O)O)NC2=O` (stereo partly drawn) [I-207, Ac-PL3-Asp-Ala-B5-Asp-Glu-Ala-Ala-3MeF-Val-S8-Phe-Trp-Gln-NH2], the IC50 in series [1] (setting [5]) and in series [1] (setting [4]) was 1750 nM in each case. Besides, in series [2], the midpoint of the response, the EC50, lay at 143 nM. Moreover, in series [3], the “CHI Log D” value is given as 2.054.
`COc1ccc(C[C@@H]2NC(=O)[C@H](C)NC(=O)[C@H](C)NC(=O)[C@H](CCC(=O)O)NC(=O)[C@H](CC(=O)O)NC(=O)C3(CCCC=CCCCCCC[C@@](C)(C(=O)N[C@@H](Cc4ccccc4)C(=O)N[C@@H](Cc4c[nH]c5ccccc45)C(=O)N[C@@H](CCC(N)=O)C(N)=O)NC(=O)[C@H](C(C)C)NC2=O)CCCC=CC[C@]2(CCCN2C(C)=O)C(=O)N[C@@H](CC(=O)O)C(=O)N[C@@H](C)C(=O)N3)cc1` (stereo partly drawn) [I-217, Ac-PL3-Asp-Ala-B5-Asp-Glu-Ala-Ala-MeTyr-Val-S8-Phe-Trp-Gln-NH2]: the IC50 in series [1] (setting [5]) and in series [1] (setting [4]) was 1960 nM each time. In series [2], this molecule came in with an EC50 of 90 nM. The “CHI Log D” value in series [3] worked out at 2.012.
As for `CC(=O)N1CCC[C@]12CC=CCCCC1(CCCC=CCCCCCC[C@@](C)(C(=O)N[C@@H](Cc3ccccc3)C(=O)N[C@@H](Cc3c[nH]c4ccccc34)C(=O)N[C@@H](CCC(N)=O)C(N)=O)NC(=O)[C@H](C(C)C)NC(=O)[C@H](Cc3cc(F)cc(F)c3)NC(=O)[C@H](C)NC(=O)[C@H](C)NC(=O)[C@H](CCC(=O)O)NC(=O)[C@H](CC(=O)O)NC1=O)NC(=O)[C@H](C)NC(=O)[C@H](CC(=O)O)NC2=O` (stereo partly drawn) [I-219, Ac-PL3-Asp-Ala-B5-Asp-Glu-Ala-Ala-35FF-Val-S8-Phe-Trp-Gln-NH2], the IC50 in series [1] (setting [5]) and in series [1] (setting [4]) was 2860 nM throughout. Moreover, in series [2], a half-maximal effect (EC50) was put at 131 nM. The “CHI Log D” value in series [3] was determined as 2.074.
Regarding `CC(=O)N1CCC[C@]12CC=CCCCC1(CCCC=CCCCCCC[C@@](C)(C(=O)N[C@@H](Cc3ccccc3)C(=O)N[C@@H](Cc3c[nH]c4ccccc34)C(=O)N[C@@H](CCC(N)=O)C(N)=O)NC(=O)[C@H](C(C)C)NC(=O)[C@H](Cc3cccc(C(F)(F)F)c3)NC(=O)[C@H](C)NC(=O)[C@H](C)NC(=O)[C@H](CC(=O)O)NC(=O)[C@H](CC(=O)O)NC1=O)NC(=O)[C@H](C)NC(=O)[C@H](CC(=O)O)NC2=O` (stereo partly drawn) [I-238, Ac-PL3-Asp-Ala-B5-Asp-Asp-Ala-Ala-3F3MeF-Val-S8-Phe-Trp-Gln-NH2], the IC50 in series [1] (setting [5]) and in series [1] (setting [4]) was 1590 nM throughout. In series [2], the EC50 is 267 nM. In series [3], the “CHI Log D” value came to 2.074.
As to `CC(=O)N1CCC[C@]12CC=CCCCC1(CCCC=CCCCCCC[C@@](C)(C(=O)N[C@@H](Cc3ccccc3)C(=O)N[C@@H](Cc3c[nH]c4ccccc34)C(=O)N[C@@H](CCC(N)=O)C(N)=O)NC(=O)[C@H](C(C)C)NC(=O)[C@H](Cc3cccc(C(F)(F)F)c3)NC(=O)[C@H](C)NC(=O)[C@H](C)NC(=O)[C@H](CC(=O)O)NC(=O)[C@H](CC(=O)O)NC1=O)NC(=O)[C@H](C)NC(=O)[C@H](CC(=O)O)NC2=O` (stereo partly drawn) [I-239, Ac-PL3-Asp-Ala-B5-Asp-Asp-Ala-Ala-3F3MeF-Val-S8-Phe-Trp-Gln-NH2], in series [1] (setting [4]), the IC50 worked out at 1590 nM. In series [2], the EC50 came out at 267 nM. For the same molecule, in series [3], the “CHI Log D” value came out at 2.074.
Consider `CC(=O)N1CCC[C@]12CC=CCCCC1(CCCC=CCCCCCC[C@@](C)(C(=O)N[C@@H](Cc3cccc4ccccc34)C(=O)N[C@@H](Cc3c[nH]c4ccccc34)C(=O)N[C@@H](CCC(N)=O)C(N)=O)NC(=O)[C@H](C(C)C)NC(=O)[C@H](Cc3ccccc3)NC(=O)[C@H](C)NC(=O)[C@H](C)NC(=O)[C@H](CC(=O)O)NC(=O)[C@H](CC(=O)O)NC1=O)NC(=O)[C@H](C)NC(=O)[C@H](CC(=O)O)NC2=O` (stereo partly drawn) [I-276, Ac-PL3-Asp-Ala-B5-Asp-Asp-Ala-Ala-Phe-Val-S8-1NapA-Trp-Gln-NH2], for which the IC50 in series [1] (setting [5]) and in series [1] (setting [4]) was 3430 nM throughout. In series [2], this molecule yielded an EC50 of 329 nM. Moreover, the “CHI Log D” value in series [3] amounted to 2.207.
